# Laboratory results as given in PubChem BioAssay (NCI).
#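 Cells were grown in 96-well plates and exposed to each compound for 48 hours at five concentrations; endpoints were interpolated linearly between bracketing concentrations, or set to the highest concentration if not reached. GI50: concentration for 50% inhibition of growth. TGI denotes the concentration required for complete inhibition of growth.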
# Experiments:
# Assay in all cases: DTP human tumour cell line panel, 48 h
# [1] = tested on: RXF 393 renal
# [2] = tested on: UO-31 renal
# [3] = tested on: COLO 205 colon
# [4] = tested on: SW-620 colon
# [5] = tested on: SK-OV-3 ovarian
# [6] = tested on: LOX IMVI melanoma
# [7] = tested on: UACC-62 melanoma
# [8] = tested on: A498 renal
# [9] = tested on: MDA-MB-435
# [10] = tested on: SR leukemia
SMILES,GI50 [1] [µM],TGI [1] [µM],GI50 [2] [µM],TGI [2] [µM],GI50 [3] [µM],TGI [3] [µM],GI50 [4] [µM],TGI [4] [µM],GI50 [5] [µM],TGI [5] [µM],GI50 [6] [µM],TGI [6] [µM],GI50 [7] [µM],TGI [7] [µM],GI50 [8] [µM],TGI [8] [µM],GI50 [9] [µM],TGI [9] [µM],TGI [10] [µM]
CCCCCCCCCCCCCCCC(=O)OCC1OC(n2cnc3c(=S)nc(N)[nH]c32)C(OC(=O)CCCCCCCCCCCCCCC)C1OC(=O)CCCCCCCCCCCCCCC (centres undefined),8.09,> 50,9.49,> 50,7.39,35.8,11.1,> 50,1.55,> 27.8,1.54,> 50,3.35,> 21.5,> 25.1,> 50,3.68,> 50,–
COC(=O)Nc1nc2ccc(Oc3ccc(NC(=O)Nc4cccc(Br)c4)cc3)cc2[nH]1,1.92,11.9,> 16.6,> 25,1.48,7,1.48,17.6,2.95,15.3,2.32,> 11.9,0.906,7.41,2.1,17.4,0.0839,0.46,–
CS(=O)(=O)N(CCC#N)c1ccc(/C=N/NC(=O)CC(=O)Nc2cccc(Cl)c2)cc1,–,> 100,–,> 100,–,> 100,–,> 100,–,> 100,–,> 100,–,> 100,–,> 100,–,–,–
N#CCCN(CCC#N)c1ccc(/C=C2\N=C(COc3ccc(Cl)cc3Cl)OC2=O)cc1,–,–,–,> 100,–,> 100,–,> 100,–,> 100,–,> 100,–,> 100,–,> 100,–,–,–
Cc1cc2c(cc1C)[n+](=O)c(C(=O)/C=C/c1ccc(Cl)cc1)c(C)n2[O-],–,–,–,39.6,–,41.1,–,> 100,–,> 100,–,50.4,–,44.3,–,75.9,–,–,–
O=c1[nH]c(-c2ccccc2)nc2ccc(Cl)cc12,–,> 100,–,> 100,–,> 100,–,> 100,–,–,–,–,–,–,–,–,–,–,> 100
Cc1ccc2c[c]1[Hg][CH2]COS2(=O)=O,15.9,29.3,17.3,31,18.8,32.8,17.8,31.6,> 100,> 100,18.5,36.4,17.2,30.9,15.8,29.3,24.7,39.4,–
NC1CCCCC1N.O=C([O-])P(=O)([O-])[O-].[Na+].[Pt+4] (centres undefined),> 100,> 100,> 100,> 100,–,–,28.8,> 100,> 100,> 100,> 100,> 100,> 100,> 100,> 100,> 100,–,–,–
C[C@]12CC/C(=N\N)C[C@@H]1CC[C@@H]1[C@@H]2CC[C@]2(C)/C(=N/N)CC[C@@H]12,> 100,> 100,51,> 100,–,–,> 100,> 100,> 100,> 100,> 100,> 100,> 100,> 100,> 100,> 100,> 100,> 100,–
O=C(CC1(O)C(=O)Nc2ccc(Br)cc21)c1ccc(Cl)cc1 (centres undefined),–,> 100,–,> 100,–,> 100,–,> 100,–,> 100,–,38.2,–,> 100,–,> 100,–,–,–
COc1cccc2c1C1(O)C2CCCC12OCCCO2 (centres undefined),–,> 100,–,> 100,–,> 100,–,> 100,–,> 100,–,> 100,–,> 100,–,> 100,–,–,–
CCN(CC)c1ccc(N=C2C=CC(=O)c3ncccc32)c(C)c1,–,12.6,–,30.4,–,5.04,–,7.12,–,34.3,–,4.39,–,16.8,–,–,–,–,6.51
c1cc(C2CCCCC2)ccc1OCCCCCCN1CCNCC1,–,–,1.62,3.38,1.96,3.55,1.78,3.4,4.16,15.2,–,–,1.86,3.81,5.06,26.5,1.64,3.12,–
